The record followed here is PubChem BioAssay (NCI).

Among the test systems are 786-0 renal; HCT-116 colon; HL-60(TB) leukemia; HOP-62 NSCLC; MDA-MB-231 breast; OVCAR-8 ovarian; RXF 393 renal; SK-MEL-28 melanoma; SN12C renal; SW-620 colon; HS 578T breast.
Holding throughout (experiment): NCI tumour cell line growth inhibition, 48 h

Structures are written as SMILES. “And” between values parts separate entries of the source, which are not always exact repeats. Equal entries are not always repeated.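 A five-concentration, 48-hour dose response in 96-well plates underlies each endpoint, interpolated linearly between surrounding concentrations. TGI: total growth inhibition.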

Regarding `O=C(O)c1nc2ccccc2nc1Nc1ccc(Cl)c(Cl)c1`, the TGI is 63.9 µM in the assay with 786-0 renal; 76.7 µM in the assay with HCT-116 colon; more than 100 µM in the assay with HL-60(TB) leukemia; 58 µM in the assay on HOP-62 NSCLC; 90 µM in the assay on MDA-MB-231 breast; more than 100 µM in the assay on OVCAR-8 ovarian. The TGI with RXF 393 renal is 69.3 µM; with SK-MEL-28 melanoma, 75 µM; in the assay with SN12C renal it was more than 100 µM; in the assay on SW-620 colon, more than 100 µM.
On to `CC(C)=CCCC(C)(OC1OC(CO)C(O)C(O)C1O)C1CCC2(C)C1C(O)CC1C3(C)CCC(O)C(C)(C)C3C(OC3OC(CO)C(O)C(O)C3OC3OC(C)C(O)C(O)C3O)CC12C` (stereo not drawn) (tested in a mixture with another compound), for which the TGI with 786-0 renal, in the assay with HCT-116 colon, in the assay with HL-60(TB) leukemia, with HOP-62 NSCLC, in the assay on HS 578T breast and in the assay with MDA-MB-231 breast was more than 75 µM throughout. Also, the TGI in the assay with OVCAR-8 ovarian, in the assay with SK-MEL-28 melanoma, in the assay on SN12C renal and in the assay on SW-620 colon was more than 75 µM in each case.
Regarding `CSc1ncnc2c1cnn2Cc1cnnn1COCC(O)CO` (stereo not drawn), the TGI in the assay with 786-0 renal, with HCT-116 colon, in the assay with HL-60(TB) leukemia, in the assay on HOP-62 NSCLC, with MDA-MB-231 breast and with OVCAR-8 ovarian was more than 100 µM each time. Besides, the TGI in the assay on SK-MEL-28 melanoma, in the assay with SN12C renal and in the assay with SW-620 colon was more than 100 µM throughout.
`O=C1NC2NC3NC(=O)NC3NC2N1` (stereo not drawn): the TGI in the assay on 786-0 renal, in the assay with HCT-116 colon, in the assay with HL-60(TB) leukemia, with HOP-62 NSCLC, in the assay with MDA-MB-231 breast and in the assay on OVCAR-8 ovarian was more than 100 µM throughout. For the same compound, the TGI in the assay with RXF 393 renal, with SK-MEL-28 melanoma, in the assay with SN12C renal and with SW-620 colon was more than 100 µM in each case.
With `CC(C)/C=C1\CCC(CN(C)C)C1=O` (stereo not drawn), the TGI in the assay with 786-0 renal is 1.25 µM; with HCT-116 colon, 2.5 µM; in the assay with HL-60(TB) leukemia, 4.55 µM; with HOP-62 NSCLC, 46.3 µM; in the assay on MDA-MB-231 breast, 3.01 µM; with OVCAR-8 ovarian, 6.97 µM. The TGI with RXF 393 renal was determined as 1.31 µM; in the assay on SK-MEL-28 melanoma it was 5.07 µM; in the assay with SN12C renal, 16.3 µM; in the assay with SW-620 colon, 1.55 µM.
`COc1cc2c(c(OC)c1OC)-c1ccc(SC)c(=O)cc1[C@@H](NCc1ccc(F)cc1)CC2`: the TGI in the assay on 786-0 renal was 16.8 µM and 25 µM; in the assay with HCT-116 colon, 0.079 µM; in the assay on HL-60(TB) leukemia, more than 100 µM; in the assay with HOP-62 NSCLC, 75 µM and 20.6 µM; in the assay on OVCAR-8 ovarian, 75 µM; in the assay on RXF 393 renal it was 75 µM and 19.5 µM. Also, the TGI in the assay on SK-MEL-28 melanoma is 75 µM; in the assay with SN12C renal, 20.8 µM; with SW-620 colon, 18.8 µM and > 100 µM.
As for `CC(C)N(C(=O)C12C3C4C1C1C2C3C41C#N)C(C)C` (stereo not drawn), the TGI is more than 100 µM with 786-0 renal; more than 100 µM in the assay on HCT-116 colon; more than 59 µM in the assay with HL-60(TB) leukemia; more than 100 µM with HOP-62 NSCLC; more than 100 µM in the assay on OVCAR-8 ovarian; more than 100 µM with RXF 393 renal. The TGI in the assay with SK-MEL-28 melanoma, in the assay on SN12C renal and in the assay with SW-620 colon was more than 100 µM in each case.
For the compound `Cc1ccc(S(=O)c2cccs2)cc1` (stereo not drawn), the TGI with 786-0 renal, with HCT-116 colon, in the assay on HL-60(TB) leukemia, in the assay with HOP-62 NSCLC, in the assay with OVCAR-8 ovarian and in the assay with RXF 393 renal was more than 100 µM in each case. For the same compound, the TGI with SK-MEL-28 melanoma, with SN12C renal and in the assay on SW-620 colon was more than 100 µM in each case.
In the case of `COC(=O)C1(NC(=O)C(Cc2ccccc2)N(C(=O)OC(C)(C)C)C(=O)OC(C)(C)C)CCCC1` (stereo not drawn), the TGI with 786-0 renal was more than 10 µM; in the assay with HCT-116 colon, more than 100 µM; in the assay on HL-60(TB) leukemia, 62.1 µM; with HOP-62 NSCLC, more than 100 µM; in the assay on HS 578T breast it was more than 100 µM; with MDA-MB-231 breast, more than 100 µM. In addition, the TGI in the assay on OVCAR-8 ovarian, with SK-MEL-28 melanoma, with SN12C renal and in the assay with SW-620 colon was more than 100 µM throughout.
For the compound `CC1=NN(c2nc(N)nc(NS(=O)(=O)c3cc(C)c(Cl)cc3S)n2)C(C)(C)C1`, the TGI with 786-0 renal, in the assay on HCT-116 colon, in the assay with HL-60(TB) leukemia, with HOP-62 NSCLC, in the assay on HS 578T breast and in the assay on OVCAR-8 ovarian was more than 10 µM in each case. Moreover, the TGI in the assay with RXF 393 renal, with SK-MEL-28 melanoma, in the assay on SN12C renal and in the assay on SW-620 colon was more than 10 µM each time.
Consider `CC(C)(C)N=CN1C=Cc2nc3ccccc3cc2C1`, for which the TGI in the assay on 786-0 renal, with HCT-116 colon, with HL-60(TB) leukemia, in the assay on HOP-62 NSCLC, in the assay on OVCAR-8 ovarian and in the assay with RXF 393 renal was more than 100 µM throughout. For the same compound, the TGI in the assay on SK-MEL-28 melanoma is more than 100 µM; in the assay on SN12C renal, more than 100 µM; with SW-620 colon, 49.2 µM.
On to `O=[N+]([O-])c1ccc(SN=S=NSc2cccc(SN=S=NSc3ccc([N+](=O)[O-])cc3)c2)cc1`, for which the TGI in the assay with 786-0 renal was 27.2 µM; with HCT-116 colon, more than 100 µM; in the assay with HL-60(TB) leukemia it was 83.7 µM; in the assay with HOP-62 NSCLC, more than 100 µM; in the assay on HS 578T breast it was more than 100 µM; in the assay with OVCAR-8 ovarian it was 53.4 µM. Also, the TGI with SK-MEL-28 melanoma was more than 100 µM; in the assay with SN12C renal, 29.2 µM; in the assay with SW-620 colon, 60.3 µM.
On to `CN(C)CCN(C)P12(Oc3ccccc3O1)Oc1c(Cl)c(Cl)c(Cl)c(Cl)c1O2`, for which the TGI in the assay on 786-0 renal was more than 100 µM; with HCT-116 colon it was more than 100 µM; in the assay on HL-60(TB) leukemia it was 40.9 µM; with HOP-62 NSCLC, more than 100 µM; in the assay on MDA-MB-231 breast, more than 100 µM; in the assay on OVCAR-8 ovarian, more than 100 µM. The TGI in the assay with SK-MEL-28 melanoma, in the assay with SN12C renal and in the assay on SW-620 colon was more than 100 µM in each case.
Consider `O=C1CCN2c3ccccc3[C@H]3Cc4cccc(c4[C@@H]2C3)CCO1`, for which the TGI in the assay on 786-0 renal is more than 100 µM; in the assay on HCT-116 colon it was more than 100 µM; in the assay on HL-60(TB) leukemia it was 48.8 µM; with HOP-62 NSCLC it was more than 100 µM; with MDA-MB-231 breast it was more than 100 µM; in the assay with OVCAR-8 ovarian, more than 100 µM. For the same compound, the TGI was more than 100 µM with RXF 393 renal, more than 100 µM in the assay with SK-MEL-28 melanoma, 37.4 µM with SN12C renal and more than 100 µM in the assay with SW-620 colon.
